# Assay results published in PMC6694829, “Identification of Immunodominant HIV-1 Epitopes Presented by HLA-C*12:02, a Protective Allele, Using an Immunopeptidomics Approach” (Journal of Virology, 2019).
# Experiments:
# [1] = tested on: PBMCs from HIV-1-infected HLA-C*12:02+ individuals; assay: ex vivo IFN-γ ELISpot assay; type: cell-based, human; conditions: for average magnitude of the T cell responses in individuals recognizing the epitope: ex vivo ELISpot, 20 HLA-C*12:02+ individuals screened, responders only; for number of individuals with T cell response to the peptide: of 20 chronically HIV-1-infected HLA-C*12:02+ Japanese individuals, peptide 1 μM, positive >100 spots/10^6 PBMCs
# Protocol: Peripheral blood mononuclear cells (PBMCs) were separated from whole blood and stored at −80°C. ELISpot assays were performed as previously described ([52]). […] The plates were then incubated for 16 h at 37°C and subsequently washed with PBS before the addition of biotinylated anti-IFN-γ mAb (Mabtech) at 1 μg/ml. After the plates had been incubated at room temperature for 90 min, they were washed with PBS and then incubated with streptavidin-conjugated alkaline phosphatase (Mabtech) for 60 min at room temperature. Following washes with PBS, individual cytokine-producing cells were visualized as dark spots after a 20-min reaction with 5-bromo-4-chloro-3-indolyl phosphate and nitroblue tetrazolium in the presence of an alkaline phosphatase-conjugated substrate (Bio-Rad). The spots were counted with an Eliphoto-Counter (Minerva Teck). The number of spots was calculated per 10^6 PBMCs. One hundred spots per 10^6 PBMCs were defined as a positive response, as described previously ([52]).
# [2] = target: HLA-C*12:02 heavy chain and β2-microglobulin (Homo sapiens, UniProt P10321, A176E/A330V/C350S/D114A/D33Y/L171W/L180W/L218V/M285V/M309V/M331V/P208H/Q277E/Q291P/S123Y/S297R/S48A/T329A/T363A/V319A/V328M); assay: peptide/HLA refolding assay analyzed by FPLC; type: binding; conditions: for refolding with HLA-C*12:02 heavy chain and β2m: low-temperature refolding, FPLC, result in words; for refolded peptide/HLA-C*12:02/β2m complex FPLC peak Height: heavy chain 20 μM, β2m 2 μM, peptide 85 μM, 48 h at 4°C, Superdex 75, Fig. 2d
# Protocol: Refolding of peptides with the HLA heavy chain and β2m was performed as previously described ([74]). Briefly, HLA-C*12:02 heavy chain and β2m were overexpressed in Escherichia coli as inclusion bodies and solubilized with 8 M urea. Before refolding, only β2m was refolded and purified with Superdex 75 pg 26/600 (GE Healthcare) chromatography, and the solubilized HLA heavy chain was treated with 6 M guanidine hydrochloride at 4°C overnight. The dissolved HLA heavy chain, purified monomer β2m, and peptide (final concentrations of 20 μM, 2 μM, and 85 μM, respectively) were diluted in 10 ml of refolding buffer (100 mM Tris-HCl [pH 8.0], 400 mM L-arginine, 2 mM EDTA-Na, 5 mM reduced L-glutathione, and 0.5 mM oxidized L-glutathione). After 48 h of slow stirring at 4°C, the peptide–HLA-C complex was then concentrated and purified by Superdex 75 pg 26/600 (GE Healthcare) chromatography.
# HLA-C*12:02 = HLA-C*12:02 (Homo sapiens, UniProt P10321, A176E/A330V/C350S/D114A/D33Y/L171W/L180W/L218V/M285V/M309V/M331V/P208H/Q277E/Q291P/S123Y/S297R/S48A/T329A/T363A/V319A/V328M); assay: HLA class I stabilization assay using RMA-S-C1202 cells; type: cell-based; conditions: for binding to HLA-C*12:02 (stabilization of surface HLA expression, expression index) / binding to HLA-C*12:02 at higher peptide concentration: RMA-S-C1202 cells, result in words; for binding to HLA-C*12:02 (stabilization of surface HLA expression, expression index): peptide 0.1 to 100 μM, pulsed 26°C 1 h then 37°C 3 h, DT-9 staining, flow cytometry; for affinities of binding to HLA-C*12:02, Nef-MY9 compared with Nef-MY10: data not shown, words; for binding to HLA-C*12:02 at higher peptide concentration: peptide 100 to 300 μM
# Protocol: The affinity of peptide binding to HLA-C*12:02 was examined using RMA-S-C1202 cells as previously described ([67]). Briefly, RMA-S-C1202 cells were cultured at 26°C for 16 h and then pulsed with peptides at 26°C for 1 h and subsequently incubated at 37°C for 3 h. Staining of cell surface HLA-C molecules was performed with DT-9, an HLA-C-specific monoclonal antibody (mAb) (a gift from Mary Carrington, NIH), and fluorescein isothiocyanate (FITC)-conjugated sheep anti-mouse IgG (Jackson ImmunoResearch). Staining data were acquired on a FACSCanto II instrument (BD Biosciences) and analyzed using FlowJo 10.5.3 software. Relative HLA expression was calculated as the ratio of the mean fluorescence intensity (MFI) of peptide-pulsed RMA-S-C1202 cells to that of control (non-peptide-pulsed) cells kept at 26°C.
# CD8+ T cells [3] = conditions: comparison Nef-MY9 vs Nef-MY10; previous study; cited from earlier work
# Source text: In addition to Nef-VY9, which was previously reported as immunodominant HLA-C*12:02-restricted epitope MY9 ([52], [53]), the C-terminally extended Nef-VF10 peptide (VARELHPEYF) was also among the HIV-1 peptides identified here. […] (Nef-MY9) much more efficiently than […]Y (Nef-MY10) ([52]), despite the fact that the affinities of ...
# CD8+ T cells [4] = assay: intracellular cytokine staining (ICS) assay with peptide-expanded bulk T cells; type: cell-based, human; conditions: peptide-expanded bulk T cells from responder KI-1407 (Env-RL9) or KI-1394 (Vif-DY9); IFN-γ ICS; words
# Protocol: PBMCs from HIV-1-infected individuals were expanded by culture with each HIV-1 peptide for 2 weeks. .221-C1202 cells prepulsed with each HIV-1 peptide or .221-C1202 cells infected with HIV-1 NL4-3 were added to a 96-well plate together with bulk-cultured T cells, and the cells were incubated for 4 h at 37°C with brefeldin A (10 μg/ml). The cells were then stained with peridinin chlorophyll protein (PerCP)-labeled anti-CD3 mAb (BioLegend), phycoerythrin (PE)-labeled anti-CD4 mAb (BioLegend), and allophycocyanin (APC)-labeled anti-CD8 mAb (Dako) and subsequently fixed with 4% paraformaldehyde and incubated in permeabilization buffer (0.1% saponin–10% FBS–PBS). Thereafter, the cells were stained with FITC-labeled anti-IFN-γ mAb (BioLegend). Staining data were acquired on a FACSCanto II instrument (BD Biosciences) and analyzed using FlowJo 10.5.3 software.
Sequence,average magnitude of the T cell responses in individuals recognizing the epitope [1] [SFC/10^6 PBMCs],number of individuals with T cell response to the peptide [1],refolding with HLA-C*12:02 heavy chain and β2m [2],"binding to HLA-C*12:02 (stabilization of surface HLA expression, expression index) (HLA-C*12:02)","affinities of binding to HLA-C*12:02, Nef-MY9 compared with Nef-MY10 (HLA-C*12:02)",recognition by PBMCs expanded in vitro with a peptide cocktail including MARELHPEYY (CD8+ T cells [3]),refolded peptide/HLA-C*12:02/β2m complex FPLC peak Height [2] [mAU],binding to HLA-C*12:02 at higher peptide concentration (HLA-C*12:02),HLA restriction of T cell response: recognition of peptide-prepulsed 721.221 cells expressing single HLA alleles (CD8+ T cells [4])
"MARELHPEY [Nef-MY9, reference compound]",167,5/20,"complex of HLA-C*12:02, peptide, and β2m was generated",exhibited affinity for HLA-C*12:02 molecules,similar,much more efficiently than […] (Nef-MY10),–,–,–
"LGKIWPSH [Gag-LH8, HIV-1 Gag 434–441 peptide LGKIWPSH]",–,–,shown to refold with HLA-C*12:02 heavy chain and β2m molecules,–,–,–,6.41,did not exhibit detectable binding,–
"MSQVTNSATIM [Gag-MM11, HIV-1 Gag 367–377 peptide eluted from HLA-C*12:02; tested as clade B consensus […]]",–,–,shown to refold with HLA-C*12:02 heavy chain and β2m molecules,–,–,–,3.51,did not exhibit detectable binding,–
"DAKLVITTY [Vif-DY9, HIV-1 Vif 61–69 peptide …]",–,1,–,–,–,–,–,–,higher-magnitude response to Vif-DY9-pulsed HLA-B*35:01-expressing cells than to Vif-DY9-pulsed HLA-C*12:02-expressing cells
"KGALDLSHF [Nef-KF9, HIV-1 Nef 82–90 peptide; synthesized as …]",–,–,shown to refold with HLA-C*12:02 heavy chain and β2m molecules,–,–,–,4.48,did not exhibit detectable binding,–
"ILKEPVHGVYY [Pol-IY11, HIV-1 Pol 464–474 peptide […]]",130,5/20,shown to refold with HLA-C*12:02 heavy chain and β2m molecules,exhibited affinity for HLA-C*12:02 molecules,–,–,4.88,–,–
"FLGKIWPSH [Gag-FH9, HIV-1 Gag 433–441 peptide …]",–,–,shown to refold with HLA-C*12:02 heavy chain and β2m molecules,–,–,–,2.27,did not exhibit detectable binding,–
"MARELHPEYY [Nef-MY10, […], consensus version of Nef-VF10, reference compound]",–,–,–,–,similar,–,–,–,–
